This is an account of results in US11046697B2, “Compounds and compositions useful for treating disorders related to NTRK” (BLUEPRINT MEDICINES CORPORATION, priority 2015, dated 2021).

Where two headings read alike, the source gives them in different places.

For assay [1], the system named is KM12 wild type colon carcinoma cell line harboring the TPM3-NTRK1 fusion protein. The experiment in a line: NTRK wild type cellular assay (CellTiter-Glo growth inhibition). The format is cell-based. The following applies: for IC50: 72 hr, CellTiter-Glo, read-out: KM12 (WT) IC50. The procedure: (§1) NTRK Wild Type and G595R Mutant Cellular Assays Protocol
(§2) KM12 wild type colon carcinoma cell line harboring the TPM3-NTRK1 fusion protein was obtained from the National Cancer Institute (NCI). This line has been previously shown to be dependent upon the NTRK activity derived from the NTRK fusion protein for growth and survival. […] Cells were first plated in 384-well plates at 1000 cells/well in complete media (10% FBS and 1% pen/strep) and incubated overnight at 37° C. Cells were then dosed with test articles at varying concentrations using the Bravo liquid handling system. […] Each compound was run in duplicate per plate. […] 72 hr after dosing, assay plates were developed using CellTiter-Glo (Promega) and resultant luminescence was read on the Envision plate reader. IC50 determinations were calculated using a 4-parameter curve fitting algorithm
On the technique in general: Cellular ATP, detected with luciferase, serves as a proxy for viable cell number.

For assay [2], the system named is KM12 Cliff (G595R) cell line. Kind of assay: NTRK G595R mutant cellular assay (CellTiter-Glo growth inhibition). The format is cell-based. To be noted: for IC50: 72 hr, CellTiter-Glo. On the procedure: as §1, §2
In assay [3] the target is T1, wild type NTRK1 enzyme (Homo sapiens, UniProt P04629).
T1 construct: purchased BPS Bioscience 40280
The experiment in a line: NTRK1 Wild Type Assay at 1 mM ATP. To be noted: 1 mM ATP; read-out: Enz NTRK1 IC50. The format is biochemical. On the procedure:
NTRK1 Wild Type Assay at 1 mM ATP
The reaction was stopped by the addition of 70 μL of Stop buffer (100 mM HEPES pH 7.5, 0.015% Brij 35, 35 mM EDTA and 0.2% of Coating Reagent 3 (Caliper Lifesciences)). The plate was then read on a Caliper EZReader 2 (protocol settings: −1.7 psi, upstream voltage −500, downstream voltage −3000, post sample sip 35s).

T1 sequence (P04629 440-796 limits assumed): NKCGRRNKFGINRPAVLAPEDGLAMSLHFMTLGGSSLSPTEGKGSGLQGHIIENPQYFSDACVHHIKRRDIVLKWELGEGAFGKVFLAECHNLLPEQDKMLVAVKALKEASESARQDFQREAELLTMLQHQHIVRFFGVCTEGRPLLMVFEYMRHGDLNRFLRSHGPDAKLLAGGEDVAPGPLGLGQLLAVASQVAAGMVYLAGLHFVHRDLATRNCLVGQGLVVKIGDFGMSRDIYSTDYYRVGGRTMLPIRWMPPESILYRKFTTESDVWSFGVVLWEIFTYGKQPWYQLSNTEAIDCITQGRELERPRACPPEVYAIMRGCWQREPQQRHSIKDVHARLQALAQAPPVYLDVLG

For `N#Cc1cc(F)cc(C2CC(F)CN2C(=O)c2n[nH]c3ncnc(NC4CCOCC4O)c23)c1` (stereo not shown) [Compound 181], the IC50 (usually the concentration that gives 50% inhibition) was 10 to 100 nM in assay [1], 10 to 100 nM in assay [2] and below 10 nM in assay [3].

On to `COc1c(F)cc(F)cc1[C@H]1C[C@H](F)CN1C(=O)c1n[nH]c2ncnc(N[C@@H]3CC[C@@H](O)[C@H]3O)c12` [Compound 219], for which the half-inhibitory concentration (IC50) in assay [1], in assay [2] and in assay [3] was below 10 nM throughout.

Take `O=C(NCc1cc(F)ccc1F)c1n[nH]c2ncnc(NC3CC(F)(F)CC3O)c12` (stereo not shown) [Compound 43]: the 50% inhibitory concentration (IC50) lay in the range of 10 to 100 nM in assay [1], 100 to 1000 nM in assay [2] and 10 to 100 nM in assay [3].

With `O=C(c1n[nH]c2ncnc(N[C@@H]3CCC[C@@H](O)[C@H]3O)c12)N1C[C@@H](F)C[C@@H]1c1cc(Cl)ccc1F` [Compound 221], the IC50 in assay [1] (Homo sapiens, KM12, 72 h) is below 10 nM; in assay [2] (Homo sapiens, KM12, 72 h), below 10 nM; in assay [3], below 10 nM.

As for `O=C(NCc1cc(F)ccc1F)c1n[nH]c2ncnc(NC3CC(F)CC3O)c12` (stereo not shown) [Compound 16], the IC50 was above 1000 nM in assay [1], above 1000 nM in assay [2] and 100 to 1000 nM in assay [3].

In the case of `COc1c(F)cc(F)cc1C1CC(F)CN1C(=O)c1n[nH]c2ncnc(NC3CCCC(O)C3O)c12` (stereo not shown) [Compound 234], the IC50 in assay [1], in assay [2] and in assay [3] was below 10 nM each time.

Take `O=C(c1n[nH]c2ncnc(N[C@@H]3C=C[C@@H](O)[C@H]3O)c12)N1C[C@@H](F)C[C@@H]1c1cc(F)cc(Cl)c1` [Compound 192]: the values for the 50% inhibitory concentration (IC50) in assay [1], in assay [2] and in assay [3] were 10 to 100 nM, 10 to 100 nM and below 10 nM, respectively.

For `O=C(c1n[nH]c2ncnc(NC3COCC(O)C3O)c12)N1CC(F)CC1c1cc(F)cc(Cl)c1` (stereo not shown) [Compound 223], the IC50 is 10 to 100 nM in assay [1], 10 to 100 nM in assay [2] and below 10 nM in assay [3].

For the compound `O=C(NCc1cc(F)ccc1Cl)c1n[nH]c2ncnc(N[C@@H]3CC[C@@H](O)[C@H]3O)c12` [Compound 36], the concentration for half-maximal inhibition (IC50) in assay [1] (Homo sapiens, KM12, 72 h) lay within 100 to 1000 nM; in assay [2] (Homo sapiens, KM12, 72 h), 100 to 1000 nM; in assay [3], 10 to 100 nM.

Regarding `CN(Cc1cc(Cl)ccc1F)C(=O)c1n[nH]c2ncnc(N[C@@H]3COC[C@@H](O)[C@H]3O)c12` [Compound 163], the IC50 is 10 to 100 nM in assay [1] (Homo sapiens, KM12, 72 h); 10 to 100 nM in assay [2] (Homo sapiens, KM12, 72 h); below 10 nM in assay [3].

Consider `C[C@@H](Oc1cc(-c2cnn(C3CCNCC3)c2)cnc1N)c1c(Cl)ccc(F)c1Cl` [Crizotinib, crizotinib, reference compound], for which the 50% growth inhibitory concentration (GI50) (as a rule, the concentration that inhibits growth by half) in assay [1] (Homo sapiens, KM12, wild-type NTRK fusion cells, read-out: NTRK wt Cellular GI50) stood at 87 nM; in assay [2] (Homo sapiens, KM12, G595R mutant NTRK fusion cells), 9000 nM.

Take `O=C(c1n[nH]c2ncnc(N[C@@H]3CCOC[C@H]3O)c12)N1C[C@@H](F)C[C@@H]1c1cccc(F)c1` [Compound 158]: the IC50 in assay [1] (Homo sapiens, KM12, 72 h) was 10 to 100 nM; in assay [2] (Homo sapiens, KM12, 72 h), 10 to 100 nM; in assay [3], below 10 nM.

On to `O=C(c1n[nH]c2ncnc(N[C@H]3[C@H](O)[C@H](O)[C@@H]4C[C@@H]43)c12)N1C[C@@H](F)C[C@@H]1c1cc(F)cc(Cl)c1` [Compound 214], for which the half-maximal inhibitory concentration (IC50) in assay [1] (Homo sapiens, KM12, 72 h) is below 10 nM; in assay [2] (Homo sapiens, KM12, 72 h), below 10 nM; in assay [3] it was below 10 nM.

Consider `O=C(NCc1cc(F)ccc1F)c1n[nH]c2ncnc(N[C@@H]3C[C@H]4C[C@H]4[C@H]3O)c12` [Compound 4], for which the 50% inhibitory concentration (IC50) was above 1000 nM in assay [1] (Homo sapiens, KM12, 72 h); above 1000 nM in assay [2] (Homo sapiens, KM12, 72 h); 100 to 1000 nM in assay [3].

On to `O=C(c1n[nH]c2ncnc(N[C@@H]3CC[C@@H](O)[C@H]3O)c12)N1C[C@@H](F)C[C@@H]1c1cc(F)ccc1Cl` [Compound 195], for which the IC50 was below 10 nM in assay [1] (Homo sapiens, KM12, 72 h); below 10 nM in assay [2] (Homo sapiens, KM12, 72 h); below 10 nM in assay [3].

As for `CC(NC(=O)c1n[nH]c2ncnc(NC3CCOCC3O)c12)c1cc(F)ccc1F` (stereo not shown) [Compound 31], the half-maximal inhibitory concentration (IC50) in assay [1], in assay [2] and in assay [3] was 100 to 1000 nM throughout.

As to `O=C(c1n[nH]c2ncnc(NC3CCOCC3O)c12)N1CC(F)CC1c1cc(F)ccc1OC(F)F` (stereo not shown) [Compound 238], the IC50 in assay [1] and in assay [2] was 10 to 100 nM throughout.
